Starred links: 1 amine or outer side, 2 acyl side, 3 side chain; linkers in the order of their positions; H or OH if unused. Non-standard residues stand in square brackets, D forms with d. Residues, ends and D or L forms follow the SMILES beside them. Groups on a side chain read outwards from the residue. *: point of attachment. C20 diacid = O=C(O)CCCCCCCCCCCCCCCCCCC(=O)*; γGlu = O=C(O)[C@H](CCC(=O)[*:2])N[*:1]; Nle = CCCC[C@H](N)C(=O)O; AEEA = NCCOCCOCC(=O)O; Aib = CC(C)(N)C(=O)O
How the values were obtained:
pCRHR2 = assay: cAMP potency, transiently transfected CHO-K1 cells, pCRHR2; format: cell-based, pig; details: transiently transfected CHO-K1, average n=3; read-out: Transient cell system EC50 (nM) pCR HR2
Experimental: (§1) Selected peptides were tested for potency on different species (mouse, rat, porcine) using transiently transfected CHO-K1 cells using the general procedure.

PK in rats = format: in vivo; parameters: T½ / MRT: unit not given here; details: for MRT / T½ / clearance / half-life / Cmax / Tmax: Rat; for clearance / half-life / Cmax / Tmax / bioavailability: male, in vivo; for clearance / half-life / Cmax / Tmax: Sprague Dawley (RJHan:SD); for half-life: read-out: T½ (converted); for bioavailability: Sprague Dawley, rat
Summary of the method: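 Lean male Sprague Dawley rats (n = 3 per group) got a two-peptide combination at 50 nmol/kg IV and SC. Plasma was sampled from 0.17 to 96 h post dose and analysed by LC-MSMS. PK parameters came from non-compartmental analysis.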

[1] = Chemical stability of purified peptides (RP-UHPLC main peak purity loss); format: physicochemical
Summary of the method: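 Purity loss is the drop in RP-UHPLC main-peak area fraction (215 nm detection, C8 column at 50 °C) from time zero to day 14 and/or day 28 at 40 °C. Samples held roughly 1.0 mg/ml peptide in 50 mM phosphate, pH 7.5, with other pH targets also tested.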

[2] = Thioflavin T fibril formation assay of purified peptides; format: physicochemical; parameters: key: Amyloid fibril formation detected by an increase in ThT fluorescence was denoted with "Yes"; samples without increasing ThT fluorescence hence not forming amyloid fibrils were denoted "No"
Summary of the method: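 Fibril formation read as rising ThT emission at 480 nm (450 nm excitation), 4 µM ThT, over 96 h at 40°C with alternating 5-min rest and 700 rpm shaking cycles, in triplicate. Samples were 200 µM compound in 50 mM phosphate at various pH values, or co-formulated at 200 µM in semaglutide product at pH 7.4.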

mCRHR2 = target: T1, mCRHR2 (Mus musculus, UniProt Q60748); assay: cAMP potency, transiently transfected CHO-K1 cells, mCRHR2; format: cell-based; details: transiently transfected CHO-K1, average n=3; read-out: Transient cell system EC50 (nM) mCRH R2
T1 construct: DYK (FLAG); host or cells: CHO-K1, transiently transfected
T1 sequence (Q60748 1-431 isoform Q60748-2): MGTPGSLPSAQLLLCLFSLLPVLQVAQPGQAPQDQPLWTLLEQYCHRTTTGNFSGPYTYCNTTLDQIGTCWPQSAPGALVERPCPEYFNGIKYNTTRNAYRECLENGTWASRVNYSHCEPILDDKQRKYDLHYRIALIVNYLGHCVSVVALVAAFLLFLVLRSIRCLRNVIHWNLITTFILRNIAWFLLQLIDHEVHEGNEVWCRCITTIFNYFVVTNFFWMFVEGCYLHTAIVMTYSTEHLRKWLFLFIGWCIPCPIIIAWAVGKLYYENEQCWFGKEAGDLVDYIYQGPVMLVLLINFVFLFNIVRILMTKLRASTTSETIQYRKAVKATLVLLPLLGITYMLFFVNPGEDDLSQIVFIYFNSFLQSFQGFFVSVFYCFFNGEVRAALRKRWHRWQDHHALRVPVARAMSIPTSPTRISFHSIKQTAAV
Experimental: as §1

rCRHR2 = target: T2, rCRHR2 (Rattus norvegicus, UniProt P47866); assay: cAMP potency, transiently transfected CHO-K1 cells, rCRHR2; format: cell-based; details: transiently transfected CHO-K1, average n=3; read-out: Transient cell system EC50 (nM) rCRHR 2
T2 construct: DYK (FLAG); host or cells: CHO-K1, transiently transfected
T2 sequence (P47866 whole entry): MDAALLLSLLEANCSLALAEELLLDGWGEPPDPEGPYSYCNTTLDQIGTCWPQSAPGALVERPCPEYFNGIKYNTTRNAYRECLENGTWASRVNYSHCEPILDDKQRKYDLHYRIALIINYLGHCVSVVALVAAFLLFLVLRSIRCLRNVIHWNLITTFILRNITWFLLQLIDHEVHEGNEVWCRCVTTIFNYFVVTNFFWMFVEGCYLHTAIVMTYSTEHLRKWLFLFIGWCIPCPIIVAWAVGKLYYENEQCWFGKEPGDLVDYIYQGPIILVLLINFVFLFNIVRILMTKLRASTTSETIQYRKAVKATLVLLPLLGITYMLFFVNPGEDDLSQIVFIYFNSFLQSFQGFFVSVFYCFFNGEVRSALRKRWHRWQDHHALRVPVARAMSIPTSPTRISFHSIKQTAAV
Experimental: as §1

PK in mice = format: in vivo; parameters: T½ / MRT: unit: h; details: for MRT / T½ / clearance / half-life / Cmax / Tmax: Mouse; for bioavailability / clearance / half-life / Cmax / Tmax: male, in vivo; for bioavailability: NMRI, mouse; for clearance / half-life / Cmax / Tmax: NMRI/RjHan; for half-life: read-out: T½ (converted)
Experimental: Lean male NMRI/RjHan mice were obtained from JanVier (JanVier Labs, France) at 6 weeks of age. The animals were single housed under a 12/12 h dark-light cycle, light off at 3 PM. Room temperature was controlled to 22°C ± 1°C, with 60 % ± 20% humidity. Animals had ad libitum access to regular rodent chow (Altromin 1324, Brogaarden, Denmark) and tap water.
After 2 weeks of acclimatization, the animals were randomized into treatment groups (n=9 per group) based on body weight. Animals were dosed IV with one peptide and SC with another peptide (15 or 50 nmol/kg) Plasma samples were collected for PK analysis at times 0.17, 1, 3, 6, 24, 30, 48, 72 and 96 hours post dosing in a sparse sampling design with 3 mice per group per timepoint. Plasma samples were analyzed using LC-MSMS and PK parameters were estimated by Non-Compartmental Analysis (NCA).

Structure (SMILES)	EC50 (pCRHR2) [nM]	MRT (PK in rats)	T½ (PK in rats)	clearance (PK in rats; iv, 50 nmol/kg i.v.) [mL/h/kg]	half-life (PK in rats; iv, 50 nmol/kg i.v.) [h]	Cmax (PK in rats; sc, 50 nmol/kg s.c.) [nM]	Tmax (PK in rats; sc, 50 nmol/kg s.c.) [h]	half-life (PK in rats; sc, 50 nmol/kg s.c.) [h]	bioavailability (PK in rats; sc) [%]	Solubility pH 7.5, target conc. =10 mg/mL (measured mg/mL) (pH 7.5) [mg/mL]	Chemical stability at pH 7.5 after 14 days at 40°C (% degradation) ([1]; pH 7.5, 14 days, 40°C) [%]	Chemical stability at pH 7.5 after 28 days at 40°C (% degradation) ([1]; pH 7.5, 28 days, 40°C) [%]	Fibrillation (pH 7.5) ([2]; pH 7.5)	EC50 (mCRHR2) [nM]	EC50 (rCRHR2) [nM]	MRT (PK in mice)	T½ (PK in mice)	bioavailability (PK in mice; sc) [%]	also measured
CCCC[C@H](NC(=O)[C@@H](NC(=O)[C@H](CCC(=O)O)NC(=O)[C@H](C)NC(=O)[C@H](CC(N)=O)NC(=O)C(C)(C)NC(=O)[C@H](CCCCNC(=O)COCCOCCNC(=O)COCCOCCNC(=O)CC[C@H](NC(=O)CC[C@H](NC(=O)CCCCCCCCCCCCCCCCCCC(=O)O)C(=O)O)C(=O)O)NC(=O)[C@H](C)NC(=O)[C@H](CCC(N)=O)NC(=O)[C@H](CCC(=O)O)NC(=O)[C@H](CCCNC(=N)N)NC(=O)[C@H](C)NC(=O)[C@H](C)NC(=O)[C@H](CCCNC(=N)N)NC(=O)[C@H](C)NC(=O)[C@H](CCCNC(=N)N)NC(=O)[C@H](C)NC(=O)[C@H](CCC(N)=O)NC(=O)[C@H](CO)NC(=O)[C@H](CC(C)C)NC(=O)[C@H](CC(C)C)NC(=O)[C@@H](NC(=O)[C@H](CCC(N)=O)NC(=O)[C@H](CC(C)C)NC(=O)[C@H](CC(C)C)NC(=O)CNC(=O)[C@@H](NC(=O)[C@@H]1CCCN1C(=O)[C@@H](NC(=O)[C@H](CC(=O)O)NC(=O)[C@H](CC(C)C)NC(=O)[C@H](CO)NC(=O)[C@H](CC(C)C)NC(=O)[C@@H](NC(=O)[C@@H]1CCCN1)C(C)C)C(C)C)[C@@H](C)CC)[C@@H](C)CC)[C@@H](C)CC)C(=O)N[C@@H](C)C(=O)N[C@@H](CCC(=O)O)C(=O)N[C@H](C(N)=O)C(C)C [SEQ ID NO: 238] (H-PVLSLDVPIGLLQILLSQARARAAREQAK([AEEA-AEEA-γGlu-γGlu-C20 diacid])[Aib]NAEI[Nle]AEV-NH2)	0.015	14.2	10.2	7	10.2	91	24	11	43	11	-1.6	-4.6	No	0.0047	0.067	21.4	19.6	60	Solubility pH 6.5 (mg/ml) (pH 6.5): 20.4 mg/ml; Solubility pH 7.0 (mg/mL) (pH 7): 20.6 mg/mL; Solubility pH 7.5 (mg/mL) (pH 7.5): 18.0 mg/mL; Solubility pH 7.5 + phenol (mg/mL) (pH 7.5): 17.9 mg/mL; Purity loss (RP-UPLC analysis) T14-T0 (%) ([1]; pH 7.0, 40°C, 14 days): -1.0%; Purity loss (RP-UPLC analysis) T28-T0 (%) ([1]; pH 7.0, 40°C, 28 days): -1.2%; Purity loss (RP-UPLC analysis) T14-T0 (%) ([1]; pH 7.5, 40°C, 14 days): -3.1%; Purity loss (RP-UPLC analysis) T28-T0 (%) ([1]; pH 7.5, 40°C, 28 days): -4.8%; Purity loss (RP-UPLC analysis) T14-T0 (%) ([1]; pH 8.0, 40°C, 14 days): -5.1%; Purity loss (RP-UPLC analysis) T28-T0 (%) ([1]; pH 8.0, 40°C, 28 days): -9.8%; Amyloid fibril formation + semaglutide (Ozempic®), pH 7.4 ([2]; 200 µM compound dissolved in semaglutide drug product, pH 7.4, listed as None = drug product alone): No; Amyloid fibril formation pH 7.0 ([2]; 200 µM in 50 mM phosphate buffer, pH 7.0): No; Amyloid fibril formation pH 7.5 ([2]; 200 µM in 50 mM phosphate buffer, pH 7.5): No; Amyloid fibril formation pH 8.0 ([2]; 200 µM in 50 mM phosphate buffer, pH 8.0): No; clearance (PK in mice; iv, 15 nmol/kg i.v.): 4.4 mL/h/kg; half-life (PK in mice; iv, 15 nmol/kg i.v.): 19.6 h; Cmax (PK in mice; sc, 15 nmol/kg s.c.): 48 nM; Tmax (PK in mice; sc, 15 nmol/kg s.c.): 24 h; half-life (PK in mice; sc, 15 nmol/kg s.c.): 25.2 h
CC[C@H](C)[C@H](N)C(=O)N[C@H](C(=O)N[C@@H](CC(C)C)C(=O)N[C@@H](CO)C(=O)N[C@@H](CC(C)C)C(=O)N[C@@H](CC(=O)O)C(=O)N[C@H](C(=O)N1CCC[C@H]1C(=O)N[C@H](C(=O)NCC(=O)N[C@@H](CC(C)C)C(=O)N[C@@H](CC(C)C)C(=O)N[C@@H](CCC(N)=O)C(=O)N[C@H](C(=O)N[C@@H](CC(C)C)C(=O)N[C@@H](CC(C)C)C(=O)N[C@@H](CCC(=O)O)C(=O)N[C@@H](CCC(N)=O)C(=O)N[C@@H](C)C(=O)N[C@@H](CCCNC(=N)N)C(=O)N[C@@H](C)C(=O)N[C@@H](CCCNC(=N)N)C(=O)N[C@@H](C)C(=O)N[C@@H](C)C(=O)N[C@@H](CCCNC(=N)N)C(=O)N[C@@H](CCC(=O)O)C(=O)N[C@@H](CCC(N)=O)C(=O)N[C@@H](C)C(=O)N[C@@H](CCCCNC(=O)COCCOCCNC(=O)COCCOCCNC(=O)CC[C@H](NC(=O)CC[C@H](NC(=O)CCCCCCCCCCCCCCCCCCC(=O)O)C(=O)O)C(=O)O)C(=O)N[C@H](C(=O)N[C@@H](CC(N)=O)C(=O)N[C@@H](C)C(=O)N[C@@H](CCC(=O)O)C(=O)N[C@H](C(=O)N[C@@H](CC(C)C)C(=O)N[C@@H](C)C(=O)N[C@@H](CCC(=O)O)C(=O)N[C@H](C(N)=O)C(C)C)[C@@H](C)CC)[C@@H](C)O)[C@@H](C)CC)[C@@H](C)CC)C(C)C)C(C)C [SEQ ID NO: 3] (H-IVLSLDVPIGLLQILLEQARARAAREQAK([AEEA-AEEA-γGlu-γGlu-C20 diacid])TNAEILAEV-NH2)	0.027	9.2	7.7	5	7.7	90	24	7.9	27	10	-6.1	-15	No	0.0054	0.07	17.5	13.5	43.1	Solubility pH 7.5, target conc. =5 mg/mL (measured mg/mL) (pH 7.5): 4.5 mg/mL; Chemical stability at pH 7.5 after 14 days at 40°C (% degradation) ([1]; pH 7.5, 40°C, 14 days, first value of cell): -6.1%; Chemical stability at pH 7.5 after 28 days at 40°C (% degradation) ([1]; pH 7.5, 40°C, 28 days, second value of cell): -15%; Fibrillation (pH 7.5) ([2]; pH 7.5, ThT assay): No; clearance (PK in mice; iv, 50 nmol/kg i.v.): < 10 mL/h/kg; half-life (PK in mice; iv, 50 nmol/kg i.v.): 13.5 h; Cmax (PK in mice; sc, 50 nmol/kg s.c.): 141 nM; Tmax (PK in mice; sc, 50 nmol/kg s.c.): 24 h; half-life (PK in mice; sc, 50 nmol/kg s.c.): 11.4 h
